How the values were obtained:
[1] = following a meal; cited from earlier work
[2] = system: patients with type I diabetes (T1DM); assay: Post-hoc analysis of randomized, double-blind, placebo-controlled study of pramlintide in T1DM subjects on intensive insulin therapy (baseline HbA1c≦8%); assay type: in vivo, human
Protocol: 1,5-AG was assessed as a marker of post-prandial blood glucose (PPG) control in pramlintide-treated patients with type I diabetes (TIDM). PPG is the glucose that appears in the blood stream and tissues after a meal. PPG predominates in the serum over average fasting glucose at HbA1c's less than 8.5%. Antihyperglycemic drugs affect PPG.
Post-hoc analysis of a randomized, double-blind, placebo-controlled study of a subset of subjects with T1DM on intensive insulin therapy with a baseline HbA1c≦8% (N=37, age 40±12 y; HbA1c 7.5±0.3%; weight 85.9±20.8 kg; mean±SD) treated with pramlintide (30/60 μg) or placebo with major meals.
• HbA1c, weight, and insulin dose measured at scheduled visits • Pre-prandial and post-prandial self-monitored blood glucose (SMBG) daily • Plasma 1,5-AG (GlycoMark assay) measured at baseline and week 29
• All evaluable subjects with a baseline HbA1c≦8% and 1,5-AG measured at baseline and week 29 • Mean (±SE) change from baseline HbA1c, body weight, PPG, insulin use and 1,5-AG at week 29 • A repeated measures analysis across all study visits was performed comparing pramlintide and placebo groups

Structure (SMILES): CC[C@H](C)[C@H](NC(=O)[C@@H]1CCCN1C(=O)CNC(=O)[C@H](Cc1ccccc1)NC(=O)[C@H](CC(N)=O)NC(=O)[C@H](CC(N)=O)NC(=O)[C@H](CO)NC(=O)[C@H](CO)NC(=O)[C@H](Cc1c[nH]cn1)NC(=O)[C@@H](NC(=O)[C@H](CC(C)C)NC(=O)[C@H](Cc1ccccc1)NC(=O)[C@H](CC(N)=O)NC(=O)[C@H](C)NC(=O)[C@H](CC(C)C)NC(=O)[C@H](CCCNC(=N)N)NC(=O)[C@H](CCC(N)=O)NC(=O)[C@@H](NC(=O)[C@H](C)NC(=O)[C@@H]1CSSC[C@H](NC(=O)[C@@H](N)CCCCN)C(=O)N[C@@H](CC(N)=O)C(=O)N[C@@H]([C@@H](C)O)C(=O)N[C@@H](C)C(=O)N[C@@H]([C@@H](C)O)C(=O)N1)[C@@H](C)O)C(C)C)C(=O)N[C@@H](CC(C)C)C(=O)N1CCC[C@H]1C(=O)N1CCC[C@H]1C(=O)N[C@H](C(=O)N[C@@H](CC(N)=O)C(=O)N[C@H](C(=O)NCC(=O)N[C@@H](CO)C(=O)N[C@@H](CC(N)=O)C(=O)N[C@H](C(=O)N[C@@H](Cc1ccc(O)cc1)C(N)=O)[C@@H](C)O)C(C)C)[C@@H](C)O [Pramlintide, L-Lysyl-L-cysteinyl-L-asparaginyl-L-threonyl-L-alanyl-L-threonyl-L-cysteinyl-L-alanyl-L-threonyl-L-glutaminyl-L-arginyl-L-leucyl-L-alanyl-L-asparaginyl-L-phenylalanyl-L-leucyl-L-valyl-L-histidyl-L-seryl-L-seryl-L-asparaginyl-L-phenylalanyl-glycyl-L-protyl-L-isoleucyl-L-leucyl-L-protyl-L-threonyl-L-asparaginyl-L-valyl-L-glycyl-L-seryl-L-prollneamylin (human) acetate hydrate]
- duration of the slowing of gastric emptying following Pramlintide administration [1]: approximately 3 hours
- Body Weight, % Change from baseline ([2]; 4 weeks): −0.7%
- Body Weight, Mean ([2]; 4 weeks): 84.2 kg
- HbA1c, % Change from baseline ([2]; 4 weeks): −7.4%
- PPG, % Change from baseline ([2]; 4 weeks): −18.9%
- PPG, Mean ([2]; 4 weeks): 143 mg/dL
- HbA1c, Mean ([2]; 4 weeks, n = 18): 7.0%
- Plasma 1,5-AG, % Change from baseline ([2]; 4 weeks, pramlintide 30/60 μg with major meals): 15.9%
- Plasma 1,5-AG, Mean ([2]; 4 weeks, pramlintide 30/60 μg with major meals, n = 18): 6.4 µg/mL
- Body Weight, % Change from baseline ([2]; 16 weeks): −2.8%
- Body Weight, Mean ([2]; 16 weeks): 82.5 kg
- HbA1c, % Change from baseline ([2]; 16 weeks): −7.0%
- PPG, % Change from baseline ([2]; 16 weeks): −16.8%
- PPG, Mean ([2]; 16 weeks): 145 mg/dL
- Plasma 1,5-AG, % Change from baseline ([2]; 16 weeks): 23.4%
- HbA1c, Mean ([2]; 16 weeks, n = 16): 7.2%
- Plasma 1,5-AG, Mean ([2]; 16 weeks, n = 17): 7 µg/mL
- Body Weight, % Change from baseline ([2]; 29 weeks): −2.2%
- Body Weight, Mean ([2]; 29 weeks): 83.0 kg
- HbA1c, % Change from baseline ([2]; 29 weeks): −4.5%
- PPG, % Change from baseline ([2]; 29 weeks): −27.2%
- PPG, Mean ([2]; 29 weeks): 135 mg/dL
- Plasma 1,5-AG, % Change from baseline ([2]; 29 weeks): 29.8%
- most common adverse event associated with pramlintide use ([2]; 29 weeks of treatment): mild to moderate nausea
- HbA1c, Mean ([2]; 29 weeks, n = 18): 7.4%
- Plasma 1,5-AG, Mean ([2]; 29 weeks, n = 18): 6.9 µg/mL
- fasting plasma 1,5-AG levels, relative change from baseline ([2]; baseline to wk 29, mean±SE, P<0.01 vs placebo): +30±16%
- fasting plasma 1,5-AG levels, absolute change from baseline ([2]; baseline to wk 29, mean±SE, P<0.05 vs placebo): +0.96±0.91 μg/mL
- mealtime insulin use ([2]; week 29, pramlintide-treated subjects): significantly decreased
- 2 hr PPG excursions, change from baseline ([2]; week 29, n=18, mean±SE, P<0.001 vs placebo): -43.9 ± 10.9 mg/dL
- body weight, change from baseline ([2]; week 29, n=18, mean±SE, P<0.01 vs placebo): -2.0 ± 1.2 kg
- HbA1c, change from baseline ([2]; week 29, n=18, mean±SE, similar to placebo): −0.18±0.31%
